Results: patent EP4692114A1, “CALCITONIN ANALOGUE, AND DERIVATIVE THEREOF AND USE THEREOF” (Hangzhou Sciwind Biosciences Co., Ltd., priority 2023, dated 2024)
*1 amine or outer side, *2 acyl side, *3 side chain or, on linkers, in order; H or OH if unused. Where a SMILES comes first, the peptide text is derived from it. The star is where a group is joined. C22 diacid = O=C(O)CCCCCCCCCCCCCCCCCCCCC(=O)*; C20 diacid = O=C(O)CCCCCCCCCCCCCCCCCCC(=O)*; C18 diacid = O=C(O)CCCCCCCCCCCCCCCCC(=O)*; C16 diacid = O=C(O)CCCCCCCCCCCCCCC(=O)*; γGlu = O=C(O)[C@H](CCC(=O)[*:2])N[*:1]; Trx = NC[C@H]1CC[C@H](C(=O)O)CC1; Inp = O=C(O)C1CCNCC1

Assay: Heat accelerated stability assay under a neutral condition
Format: physicochemical
Conditions: pH about 7.4, 40°C; for Changes in characteristics or properties, 0d / Changes in characteristics or properties, 7d: 1 mg/mL, phosphate; for Concentration change (7d-0d)/%: Day 7 vs Day 0, reversed phase chromatography; for Purity Change% (7d-0d) / Purity Change% (26d-0d): purity from reversed phase chromatography-214 nm; for Purity Change% (7d-0d): Day 7 vs Day 0; for Purity Change% (26d-0d): Day 26 vs Day 0
Description: The lyophilized powder (1 mg/mL) of calcitonin analogues or derivatives prepared in accordance with the method of Example 1 were mixed with sodium dihydrogen phosphate (1.42 mg/mL) and dissolved in ultrapure water in the indicated mass-volume ratios. After adjusting pH to about 7.4 with hydrochloric acid/sodium hydroxide, the solution was filtered into a sterilized vial in a clean bench using a 0.22 µm sterile filter. The vial was then capped and placed into the stability test chamber at 40°C. Detections were made on Days 7 (7d) and 26 (26d), and during the assay, changes in the characteristics and properties of the polypeptides were observed and recorded. The sample was then centrifuged for 3 min at 10000 rpm at 4°C, and the supernatant was transferred to a liquid phase sample vial for detecting the concentration and purity of the polypeptides using liquid phase chromatography described as below, wherein the concentration of the polypeptide = peak area/injection volume/extinction coefficient/60×flow rate, and the purity of the polypeptide = target peak area/total peak area× 100%.
Conditions of the reversed phase chromatography Flow rate: 1.0 ml/min; Autosampler temperature: 15°C; Column temperature: 25°C; Detection wavelengths: 280 nm and 214 nm; Mobile phase A: 100% H2O+0.05% TFA; Mobile phase B: 100% ACN; and Gradient of elution listed in Table 4: Table 4. Listing of the gradient of elution in the liquid phase chromatography
Results were shown below in Tables 5, 6, and 7. A difference of more than 5% in content as compared with the initial value was typically assumed (for example, as prescribed by the Chinese Pharmacopeia (2020 Edition)) to be a significant change. Within a reasonable margin of error, a decrease of less than 1% from the initial value to the detected content is denoted as "no change" below. Table 5. Changes in characteristics or properties in the heat accelerated stability assay

Row | Changes in characteristics or properties, 0d | Changes in characteristics or properties, 7d | Concentration change (7d-0d)/% | Purity Change% (26d-0d) | SMILES | Purity Change% (7d-0d)
1 | Clear | Clear | -1.678% | -3.9% | CC(C)C[C@H](NC(=O)[C@H](CCCNC(=N)N)NC(=O)CNC(=O)[C@H](CC(C)C)NC(=O)[C@@H](NC(=O)[C@H](C)NC(=O)[C@@H](NC(=O)[C@H](CO)NC(=O)[C@H](CC(C)C)NC(=O)[C@H](CCC(N)=O)NC(=O)[C@H](CO)NC(=O)[C@H](C)NC(=O)C1CCN(C(=O)CCCCCCCCCCCCCCCCC(=O)O)CC1)[C@@H](C)O)C(C)C)C(=O)N[C@@H](CO)C(=O)N[C@@H](CC(=O)O)C(=O)N[C@@H](CCC(=O)O)C(=O)N[C@@H](CC(C)C)C(=O)N[C@@H](Cc1c[nH]cn1)C(=O)N[C@@H](CCCNC(=N)N)C(=O)N[C@@H](CC(C)C)C(=O)N[C@@H](CCC(N)=O)C(=O)N[C@@H](CC(=O)O)C(=O)N[C@@H](Cc1ccc(O)cc1)C(=O)N1CCC[C@H]1C(=O)N[C@@H](CCCNC(=N)N)C(=O)N[C@H](C(=O)N[C@@H](CC(=O)O)C(=O)N[C@H](C(=O)NCC(=O)N[C@@H](CO)C(=O)NCC(=O)N[C@@H](CO)C(=O)N1CCC[C@H]1C(N)=O)C(C)C)[C@@H](C)O [M48] ({C18 diacid-Inp}-ASQLSTAVLGRLSDELHRLQDYPRTDVGSGSP-NH2) | -1%
2 | Clear | Clear | -2.280% | -4.82% | CC(C)C[C@H](NC(=O)[C@H](CCCNC(=N)N)NC(=O)CNC(=O)[C@H](CC(C)C)NC(=O)[C@@H](NC(=O)[C@H](C)NC(=O)[C@@H](NC(=O)[C@H](CO)NC(=O)[C@H](CC(C)C)NC(=O)[C@H](CCC(N)=O)NC(=O)[C@H](CO)NC(=O)[C@H](C)NC(=O)CC[C@H](NC(=O)CCCCCCCCCCCCCCC(=O)O)C(=O)O)[C@@H](C)O)C(C)C)C(=O)N[C@@H](CO)C(=O)N[C@@H](CC(=O)O)C(=O)N[C@@H](CCC(=O)O)C(=O)N[C@@H](CC(C)C)C(=O)N[C@@H](Cc1c[nH]cn1)C(=O)N[C@@H](CCCNC(=N)N)C(=O)N[C@@H](CC(C)C)C(=O)N[C@@H](CCC(N)=O)C(=O)N[C@@H](CC(=O)O)C(=O)N[C@@H](Cc1ccc(O)cc1)C(=O)N1CCC[C@H]1C(=O)N[C@@H](CCCNC(=N)N)C(=O)N[C@H](C(=O)N[C@@H](CC(=O)O)C(=O)N[C@H](C(=O)NCC(=O)N[C@@H](CO)C(=O)NCC(=O)N[C@@H](CO)C(=O)N1CCC[C@H]1C(N)=O)C(C)C)[C@@H](C)O [M40] ({C16 diacid-γGlu}-ASQLSTAVLGRLSDELHRLQDYPRTDVGSGSP-NH2) | -1.67%
3 | Clear | Clear | -3.134% | -5.98% | CC(C)C[C@H](NC(=O)[C@H](CCCNC(=N)N)NC(=O)CNC(=O)[C@H](CC(C)C)NC(=O)[C@@H](NC(=O)[C@H](C)NC(=O)[C@@H](NC(=O)[C@H](CO)NC(=O)[C@H](CC(C)C)NC(=O)[C@H](CCC(N)=O)NC(=O)[C@H](CO)NC(=O)[C@H](C)NC(=O)[C@H](CCC(=O)O)NC(=O)CCCCCCCCCCCCCCCCCCC(=O)O)[C@@H](C)O)C(C)C)C(=O)N[C@@H](CO)C(=O)N[C@@H](CC(=O)O)C(=O)N[C@@H](CCC(=O)O)C(=O)N[C@@H](CC(C)C)C(=O)N[C@@H](Cc1c[nH]cn1)C(=O)N[C@@H](CCCNC(=N)N)C(=O)N[C@@H](CC(C)C)C(=O)N[C@@H](CCC(N)=O)C(=O)N[C@@H](CC(=O)O)C(=O)N[C@@H](Cc1ccc(O)cc1)C(=O)N1CCC[C@H]1C(=O)N[C@@H](CCCNC(=N)N)C(=O)N[C@H](C(=O)N[C@@H](CC(=O)O)C(=O)N[C@H](C(=O)NCC(=O)N[C@@H](CO)C(=O)NCC(=O)N[C@@H](CO)C(=O)N1CCC[C@H]1C(N)=O)C(C)C)[C@@H](C)O [M41] ({C20 diacid}-EASQLSTAVLGRLSDELHRLQDYPRTDVGSGSP-NH2) | -1.66%

Row | SMILES | Changes in characteristics or properties, 0d | Changes in characteristics or properties, 7d | Concentration change (7d-0d)/% | Purity Change% (26d-0d) | Purity Change% (7d-0d)
4 | CC(C)C[C@H](NC(=O)[C@H](CCCNC(=N)N)NC(=O)CNC(=O)[C@H](CC(C)C)NC(=O)[C@@H](NC(=O)[C@H](C)NC(=O)[C@@H](NC(=O)[C@H](CO)NC(=O)[C@H](CC(C)C)NC(=O)[C@H](CCC(N)=O)NC(=O)[C@H](CO)NC(=O)[C@H](C)NC(=O)[C@H]1CC[C@H](CNC(=O)CCCCCCCCCCCCCCCCC(=O)O)CC1)[C@@H](C)O)C(C)C)C(=O)N[C@@H](CO)C(=O)N[C@@H](CC(=O)O)C(=O)N[C@@H](CCC(=O)O)C(=O)N[C@@H](CC(C)C)C(=O)N[C@@H](Cc1c[nH]cn1)C(=O)N[C@@H](CCCNC(=N)N)C(=O)N[C@@H](CC(C)C)C(=O)N[C@@H](CCC(N)=O)C(=O)N[C@@H](CC(=O)O)C(=O)N[C@@H](Cc1ccc(O)cc1)C(=O)N1CCC[C@H]1C(=O)N[C@@H](CCCNC(=N)N)C(=O)N[C@H](C(=O)N[C@@H](CC(=O)O)C(=O)N[C@H](C(=O)NCC(=O)N[C@@H](CO)C(=O)NCC(=O)N[C@@H](CO)C(=O)N1CCC[C@H]1C(N)=O)C(C)C)[C@@H](C)O [M46] ({C18 diacid-Trx}-ASQLSTAVLGRLSDELHRLQDYPRTDVGSGSP-NH2) | Clear | Clear | No change (a decrease of less than 1% from the initial value to the detected content is denoted as "no change") | -5.67% | No change (a decrease of less than 1% from the initial value to the detected content is denoted as "no change")
5 | CC(C)C[C@H](NC(=O)[C@H](CCCNC(=N)N)NC(=O)CNC(=O)[C@H](CC(C)C)NC(=O)[C@@H](NC(=O)[C@H](C)NC(=O)[C@@H](NC(=O)[C@H](CO)NC(=O)[C@H](CC(C)C)NC(=O)[C@H](CCC(N)=O)NC(=O)[C@H](CO)NC(=O)[C@H](C)NC(=O)C1CCN(C(=O)CCCCCCCCCCCCCCCCCCC(=O)O)CC1)[C@@H](C)O)C(C)C)C(=O)N[C@@H](CO)C(=O)N[C@@H](CC(=O)O)C(=O)N[C@@H](CCC(=O)O)C(=O)N[C@@H](CC(C)C)C(=O)N[C@@H](Cc1c[nH]cn1)C(=O)N[C@@H](CCCNC(=N)N)C(=O)N[C@@H](CC(C)C)C(=O)N[C@@H](CCC(N)=O)C(=O)N[C@@H](CC(=O)O)C(=O)N[C@@H](Cc1ccc(O)cc1)C(=O)N1CCC[C@H]1C(=O)N[C@@H](CCCNC(=N)N)C(=O)N[C@H](C(=O)N[C@@H](CC(=O)O)C(=O)N[C@H](C(=O)NCC(=O)N[C@@H](CO)C(=O)NCC(=O)N[C@@H](CO)C(=O)N1CCC[C@H]1C(N)=O)C(C)C)[C@@H](C)O [M47] ({C20 diacid-Inp}-ASQLSTAVLGRLSDELHRLQDYPRTDVGSGSP-NH2) | Clear | Clear | -3.488% | No change (a decrease of less than 1% from the initial value to the detected content is denoted as "no change") | No change (a decrease of less than 1% from the initial value to the detected content is denoted as "no change")
6 | CC(C)C[C@H](NC(=O)[C@H](CCCNC(=N)N)NC(=O)CNC(=O)[C@H](CC(C)C)NC(=O)[C@@H](NC(=O)[C@H](C)NC(=O)[C@@H](NC(=O)[C@H](CO)NC(=O)[C@H](CC(C)C)NC(=O)[C@H](CCC(N)=O)NC(=O)[C@H](CO)NC(=O)[C@H](C)NC(=O)CC[C@H](NC(=O)CCCCCCCCCCCCCCCCCCCCC(=O)O)C(=O)O)[C@@H](C)O)C(C)C)C(=O)N[C@@H](CO)C(=O)N[C@@H](CC(=O)O)C(=O)N[C@@H](CCC(=O)O)C(=O)N[C@@H](CC(C)C)C(=O)N[C@@H](Cc1c[nH]cn1)C(=O)N[C@@H](CCCNC(=N)N)C(=O)N[C@@H](CC(C)C)C(=O)N[C@@H](CCC(N)=O)C(=O)N[C@@H](CC(=O)O)C(=O)N[C@@H](Cc1ccc(O)cc1)C(=O)N1CCC[C@H]1C(=O)N[C@@H](CCCNC(=N)N)C(=O)N[C@H](C(=O)N[C@@H](CC(=O)O)C(=O)N[C@H](C(=O)NCC(=O)N[C@@H](CO)C(=O)NCC(=O)N[C@@H](CO)C(=O)N1CCC[C@H]1C(N)=O)C(C)C)[C@@H](C)O [M38] ({C22 diacid-γGlu}-ASQLSTAVLGRLSDELHRLQDYPRTDVGSGSP-NH2) | Clear | Clear | No change (a decrease of less than 1% from the initial value to the detected content is denoted as "no change") | No change (a decrease of less than 1% from the initial value to the detected content is denoted as "no change") | No change (a decrease of less than 1% from the initial value to the detected content is denoted as "no change")
